Source: US20120277269A1 (priority 2008, published 2012)
Values joined by “and” are separate entries in the source; they are usually repeats but may differ in a detail not shown here. Equal values may be shown once. Read-outs that look alike come from different tables or passages of the source.

How the values were obtained:
[1] = tested on: patients with chronic atrial fibrillation; test: PETRO phase 2 12-week dose finding study; format: in vivo, human
From the text: Primary endpoints were bleeding events and changes in D-dimer. […] Minor bleeding was dose related.

[2] = tested on: patients with atrial fibrillation
Method: The PETRO-Ex study was conducted in 52 centers in the United States, Denmark, The Netherlands, and Sweden.
PETRO-Ex began while the PETRO study was ongoing and investigators were initially kept blinded to patient treatment group until PETRO was completed.
Data were summarized descriptively; no hypothesis was to be tested. Events were analyzed on the basis of the treatment at onset. Incidences were reported as number of patients with events as well as normalized to 100 patient-years on the respective treatment.
Patients who completed PETRO on 50 mg b.i.d. were switched to 150 mg q.d. upon entry in the PETRO-Ex study (N=93 patients). […] Patients who were down titrated to 50 mg q.d. based on a glomerular filtration rate ≦50 mL/min during PETRO were excluded from the long-term trial; patients down-titrated in other dose levels remained on the q.d. treatment at that dose.
The total exposure reflects both trials, PETRO and PETRO-Ex, together.

[3] = human, in vivo
Method: Ezekowitz M D, et al., Dabigatran with or without concomitant aspirin compared with warfarin alone in patients with nonvalvular atrial fibrillation (PETRO study), Am. […] The PETRO study is described below.
Peak levels are seen within 2-3 hours of oral administration. […] Steady-state is reached within 2-3 days with a twice daily regimen. […] The remainder undergoes conjugation with glucuronic acid to form acylglucuronides which are excreted primarily in the bile.

[4] = tested on: activated partial thromboplastin time (aPTT), ecarin clotting time, and thrombin clotting time; test: Anticoagulant pharmacodynamics (clotting times)
[5] = tested on: patients with atrial fibrillation at risk of stroke; parameters: Stroke, Ischemic or Unspecified, RR: dose or concentration left out as unconfirmed
From the text: Median follow-up was 2.0 years and the primary outcome was stroke or systemic embolism.
Patients were recruited from 951 clinical centers in 44 countries. In brief, patients were eligible if they had atrial fibrillation documented on electrocardiogram at screening or within 6 months; and at least one of the following: prior stroke or transient ischemic attack; left ventricular ejection fraction less than 40%; New York Heart Association heart failure symptoms of Class 2 or greater within 6 months; age at least 75 years; or age at least 65 years with diabetes mellitus, hypertension or coronary artery disease.
The time in therapeutic range was calculated by the method of Rosendaal (Rosendaal F R, et al., A method to determine the optimal intensity of oral anticoagulant therapy, Thromb Haemost, 1993, 69:236-239), excluding INRs from the first week and after discontinuations. […] Concomitant use of aspirin (less than 100 mg/day) or other antiplatelet agents was allowed.
Liver function testing was performed monthly during the first year of follow-up.
The primary study outcome was stroke or systemic embolism. The primary safety outcome was major hemorrhage. Secondary outcomes were stroke, systemic embolism and death. Other outcomes were myocardial infarction, pulmonary embolism, transient ischemic attacks, and hospitalizations. The primary net benefit-risk outcome was the composite of stroke, systemic embolism, pulmonary embolism, myocardial infarction, death or major hemorrhage. Stroke was defined as sudden onset of focal neurological deficit consistent with the territory of a major cerebral artery and categorized as ischemic, hemorrhagic or unspecified. Hemorrhagic transformation of ischemic stroke was not considered as hemorrhagic stroke. Intracranial hemorrhage included hemorrhagic stroke and sub-dural or sub-arachnoid hemorrhage. Systemic embolism was an acute vascular occlusion of an extremity or organ documented by imaging, surgery or autopsy. Major bleeding was defined as a reduction in hemoglobin level of at least […] or transfusion of at least 2 units of blood or symptomatic bleeding in a critical area or organ. Life-threatening bleeding was a subset of major bleeding that included fatal bleeding, symptomatic intracranial bleeding, bleeding with hemoglobin decrease of more than […] or requiring transfusion of more than 4 units of blood or requiring inotropic agents or necessitating surgery. All other bleeding was considered minor.
All primary and secondary outcome events were blindly and doubly adjudicated. An international team of adjudicators reviewed documents in local languages after blinding; or documents were translated by a independent group and blinded centrally. All transient ischemic attacks were reviewed to ensure that strokes had not been missed. To detect possible unreported events, symptom questionnaires were regularly administered to patients, and adverse events and hospitalization reports were scrutinized for unreported primary or secondary outcomes.
If maximum of the two p-values was greater than 0.025, the minimum of the two p-values must be less than 0.0125, one-sided, to claim statistical significance. All analyses were based on intention-to-treat.

[6] = tested on: Patients with Non-Valvular Atrial Fibrillation; conditions: in vivo; cited from earlier work
[7] = individual patients with LFT abnormalities, one table line per patient (age c0, sex c1), # = with concomitant Bilirubin elevation to >2xULN

CCCCCCOC(=O)NC(=N)c1ccc(NCc2nc3cc(C(=O)N(CCC(=O)OCC)c4ccccn4)ccc3n2C)cc1 [Dabigatran etexilate, 1-methyl-2-[N-[4-(N-n-hexyloxycarbonylamidino)phenyl]aminomethyl]benzimidazol-5-ylcarboxylic ac id-N-(2-pyridyl)-N-(2-ethoxycarbonylethyl)amides]
Major bleeding events, number ([1]; 300 mg b.i.d. plus ASA groups, 12 weeks): Four | Elevated transaminases >3× upper limit of normal (ULN) ([1]; all dabigatran etexilate-treated patients): 0.9% | Minor bleeding ([1]; in vivo): dose related | ALT or AST >2xULN, number of patients ([2]; 50 mg b.i.d.): 0 | ALT or AST >3xULN and Bili >2xULN within 30 days, number of patients ([2]; 50 mg b.i.d.): 0 | ALT or AST >3xULN, number of patients ([2]; 50 mg b.i.d.): 0 | ALT or AST >5xULN, number of patients ([2]; 50 mg b.i.d.): 0 | Adverse Events leading to premature discontinuation, number of patients ([2]; 50 mg b.i.d.): 5 | MI, number of patients ([2]; 50 mg b.i.d.): 0 | Major Bleeds with aspirin, number of patients ([2]; 50 mg b.i.d.): 0 | Major Bleeds without aspirin, number of patients ([2]; 50 mg b.i.d.): 0 | Major Bleeds, number of patients ([2]; 50 mg b.i.d.): 0 | Other MACE, number of patients ([2]; 50 mg b.i.d.): 2 | Stroke and Systemic Thromboembolism, number of patients ([2]; 50 mg b.i.d.): 3 | TIA, number of patients ([2]; 50 mg b.i.d.): 0 | ALT or AST >2xULN, number of patients ([2]; 50 mg q.d.): 0 | ALT or AST >3xULN and Bili >2xULN within 30 days, number of patients ([2]; 50 mg q.d.): 0 | ALT or AST >3xULN, number of patients ([2]; 50 mg q.d.): 0 | ALT or AST >5xULN, number of patients ([2]; 50 mg q.d.): 0 | Adverse Events leading to premature discontinuation, number of patients ([2]; 50 mg q.d.): 0 | MI, number of patients ([2]; 50 mg q.d.): 0 | Major Bleeds with aspirin, number of patients ([2]; 50 mg q.d.): 0 | Major Bleeds without aspirin, number of patients ([2]; 50 mg q.d.): 0 | Major Bleeds, number of patients ([2]; 50 mg q.d.): 0 | Other MACE, number of patients ([2]; 50 mg q.d.): 0 | Stroke and Systemic Thromboembolism, number of patients ([2]; 50 mg q.d.): 0 | TIA, number of patients ([2]; 50 mg q.d.): 0 | ALT or AST >2xULN, number of patients ([2]; 150 mg b.i.d.): 21 | ALT or AST >3xULN and Bili >2xULN within 30 days, number of patients ([2]; 150 mg b.i.d.): 3 | ALT or AST >3xULN, number of patients ([2]; 150 mg b.i.d.): 13 | ALT or AST >5xULN, number of patients ([2]; 150 mg b.i.d.): 7 | Adverse Events leading to premature discontinuation, number of patients ([2]; 150 mg b.i.d.): 67 | MI, number of patients ([2]; 150 mg b.i.d.): 6 | Major Bleeds with aspirin, number of patients ([2]; 150 mg b.i.d.): 11 | Major Bleeds without aspirin, number of patients ([2]; 150 mg b.i.d.): 18 | Major Bleeds without aspirin, rate ([2]; 150 mg b.i.d.): 3.2 % per year | Major Bleeds, number of patients ([2]; 150 mg b.i.d.): 29 | Other MACE, number of patients ([2]; 150 mg b.i.d.): 7 | Stroke and Systemic Thromboembolism, number of patients ([2]; 150 mg b.i.d.): 7 | TIA, number of patients ([2]; 150 mg b.i.d.): 1 | ALT or AST >2xULN, number of patients ([2]; 150 mg q.d.): 2 | ALT or AST >3xULN and Bili >2xULN within 30 days, number of patients ([2]; 150 mg q.d.): 0 | ALT or AST >3xULN, number of patients ([2]; 150 mg q.d.): 0 | ALT or AST >5xULN, number of patients ([2]; 150 mg q.d.): 0 | Adverse Events leading to premature discontinuation, number of patients ([2]; 150 mg q.d.): 8 | MI, number of patients ([2]; 150 mg q.d.): 0 | Major Bleeds with aspirin, number of patients ([2]; 150 mg q.d.): 0 | Major Bleeds without aspirin, number of patients ([2]; 150 mg q.d.): 3 | Major Bleeds without aspirin, rate ([2]; 150 mg q.d.): 6.5 % per year | Major Bleeds, number of patients ([2]; 150 mg q.d.): 3 | Other MACE, number of patients ([2]; 150 mg q.d.): 0 | Stroke and Systemic Thromboembolism, number of patients ([2]; 150 mg q.d.): 3 | TIA, number of patients ([2]; 150 mg q.d.): 0 | ALT or AST >2xULN, number of patients ([2]; 300 mg b.i.d.): 4 | ALT or AST >3xULN and Bili >2xULN within 30 days, number of patients ([2]; 300 mg b.i.d.): 0 | ALT or AST >3xULN, number of patients ([2]; 300 mg b.i.d.): 2 | ALT or AST >5xULN, number of patients ([2]; 300 mg b.i.d.): 1 | Adverse Events leading to premature discontinuation, number of patients ([2]; 300 mg b.i.d.): 21 | MI, number of patients ([2]; 300 mg b.i.d.): 0 | Major Bleeds with aspirin, number of patients ([2]; 300 mg b.i.d.): 6 | Major Bleeds without aspirin, number of patients ([2]; 300 mg b.i.d.): 4 | Major Bleeds without aspirin, rate ([2]; 300 mg b.i.d.): 6.3 % per year | Major Bleeds, number of patients ([2]; 300 mg b.i.d.): 10 | Other MACE, number of patients ([2]; 300 mg b.i.d.): 1 | Stroke and Systemic Thromboembolism, number of patients ([2]; 300 mg b.i.d.): 1 | TIA, number of patients ([2]; 300 mg b.i.d.): 0 | ALT or AST >2xULN, number of patients ([2]; 300 mg q.d.): 3 | ALT or AST >3xULN and Bili >2xULN within 30 days, number of patients ([2]; 300 mg q.d.): 1 | ALT or AST >3xULN, number of patients ([2]; 300 mg q.d.): 3 | ALT or AST >5xULN, number of patients ([2]; 300 mg q.d.): 3 | Adverse Events leading to premature discontinuation, number of patients ([2]; 300 mg q.d.): 19 | MI, number of patients ([2]; 300 mg q.d.): 1 | Major Bleeds with aspirin, number of patients ([2]; 300 mg q.d.): 2 | Major Bleeds without aspirin, number of patients ([2]; 300 mg q.d.): 3 | Major Bleeds without aspirin, rate ([2]; 300 mg q.d.): 2.1 % per year | Major Bleeds, number of patients ([2]; 300 mg q.d.): 5 | Other MACE, number of patients ([2]; 300 mg q.d.): 1 | Stroke and Systemic Thromboembolism, number of patients ([2]; 300 mg q.d.): 5 | TIA, number of patients ([2]; 300 mg q.d.): 0 | Serious adverse events: cardiac disorders, number of patients ([2]; PETRO-Ex): 80 | Serious adverse events: gastrointestinal disorders, number of patients ([2]; PETRO-Ex): 28 | Serious adverse events: infections, number of patients ([2]; PETRO-Ex): 34 | Serious adverse events: nervous system disorders, number of patients ([2]; PETRO-Ex): 33 | Serious adverse events, number of patients ([2]; PETRO-Ex, including bleeding and thrombotic events): 184 | ALT or AST >2xULN, number of patients ([2]; Total, all doses): 30 | ALT or AST >3xULN and Bili >2xULN within 30 days, number of patients ([2]; Total, all doses): 4 | ALT or AST >3xULN, number of patients ([2]; Total, all doses): 18 | ALT or AST >5xULN, number of patients ([2]; Total, all doses): 11 | Adverse Events leading to premature discontinuation, number of patients ([2]; Total, all doses): 120 | MI, number of patients ([2]; Total, all doses): 7 | Major Bleeds with aspirin, number of patients ([2]; Total, all doses): 19 | Major Bleeds without aspirin, number of patients ([2]; Total, all doses): 26 | Major Bleeds without aspirin, rate ([2]; Total, all doses): 3.2 % per year | Major Bleeds, number of patients ([2]; Total, all doses): 44 | Other MACE, number of patients ([2]; Total, all doses): 11 | Stroke and Systemic Thromboembolism, number of patients ([2]; Total, all doses): 20 | TIA, number of patients ([2]; Total, all doses): 1 | ALT or AST >3xULN and Bili >2xULN within 30 days, number of patients ([2]; Total, all doses, listed as dabigatran etexilate): four | Oral bioavailability, average ([3]; po): 6.5% | Time to peak levels ([3]; po): 2 to 3 h | Onset of anticoagulant effect after dosing [4]: within one hour

[H]/N=C(/N)c1ccc(NCc2nc3cc(C(=O)N(CCC(=O)O)c4ccccn4)ccc3n2C)cc1 [Dabigatran]
LFT abnormality ALT/ULN [2, 7]: >5x (4×) and >5x^# (2×) and >3x (5×) and >3x^# | LFT abnormality AST/ULN [2, 7]: >5x^# (4×) and >5x (4×) and >3x (5×) | Time to steady-state [3]: 2 to 3 days | Effect on aPTT, ecarin clotting time, and thrombin clotting time [4]: dose dependent prolongation | Stroke, Ischemic or Unspecified, RR [5]: 0.68 | Stroke, systemic embolism, pulmonary embolism, myocardial infarction death or major bleed (net benefit), RR ([5]; Dabigatran 110 mg vs. Warfarin): 0.92 | Stroke, systemic embolism, pulmonary embolism, myocardial infarction death or major bleed (net benefit), RR ([5]; Dabigatran 150 mg vs. 110 mg): 0.98 | Stroke, systemic embolism, pulmonary embolism, myocardial infarction death or major bleed (net benefit), RR ([5]; Dabigatran 150 mg vs. Warfarin): 0.90 | Stroke, RR ([5]; Dabigatran 180 mg vs. 110 mg): 0.70 | Hepatotoxicity in serial measurement of liver function tests ([5]; human, in vivo): no evidence of hepatotoxicity

CCOC(=O)CN[C@@H](C(=O)N1CC[C@H]1C(=O)NCc1ccc(/C(N)=N\O)cc1)C1CCCCC1 [Ximelagatran]
Hepatotoxicity [6]: found to be hepatotoxic
